Source: patent US10328075B2, “Method of treatment and compounds for use therein” (Baker Heart and Diabetes Institute, priority 2015, dated 2019)
No end group written: not given here.

What was measured:
[1] = test system: myocardial I-R injury in C57BL/6 mice; assay: Myocardial I-R in mice: cardiac necrosis after 24 h reperfusion (infarct size, plasma cTnI); format: in vivo, mouse; conditions: for Cardioprotection: Infarct size: Table 9; for Cardioprotection: isolated cardio-myocytes in vitro & intact heart subjected to MI in vivo; for Reduction of infarct size / Effect on plasma cTnI levels: small molecules 50 mg/kg i.p., Ac2-26 1 mg/kg i.v.
Description: (§1) Male C57BL/6 mice were breed and housed in the AMREP Animal Centre and maintained under a 12 h light/dark cycle. After anaesthesia (i.p., ketamine 80 mg/kg, xylazine 20 mg/kg and atropine 1.2 mg/kg), mice were randomly assigned to 24 h, 48 h and 7 days reperfusion groups and underwent reversible left arterial descending (LAD) ligation as described (Gao XM, 2011; JMCC, 50; Gao XM, 2000, JMCC). Following sedation, mice were intubated and ventilated (Harvard apparatus, MA, USA) with room air mixed with oxygen (tidal volume 0.25 mL, 150 breath/min), and placed on a heating pad. A left thoractomy will be made via the ˜third intercostal space, where the beating heart was located.
(§2) The LAD was reversibly ligated using 7-0 silk suture with a slipknot enclosing two releasing rings. Regional ischaemia was confirmed by pale colour of the ligated area. Air was then evacuated from the chest, the cavity was closed and normal respiration was restored. After 40-60 min of ischaemia, blood flow through the left coronary artery was re-established by releasing the slipknot. Sham-operated mice underwent identical surgical procedures except the coronary arteries were not ligated. Three cohorts of mice were scheduled. Cohort 1 was subjected to 40 min ischaemic-24 h reperfusion for the assessment of cardiac necrosis. Cohort 2 was subjected to 60 min occlusion with 48 h reperfusion for the quantification of cardiac and systemic inflammation. The last cohort was subjected to 7 d reperfusion and early cardiac fibrosis was assessed.
(§3) Treatment with study drugs: Animals were randomly assigned to different groups and all treatments were administrated 5 min prior to reperfusion of the LAD. The peptide Ac2-26 (1 mg kg^−1) (Chemieliva, Chongqing, China) and its vehicle (10% dimethyl sulfoxide (DMSO) in saline) were intravenously (i.v.) injected via the tail vein. […] Mice then received drug or vehicle injections daily until the experimental endpoint. The two different vehicles groups reflect different study drug solubility and administration routes.
Assessment of cardiac necrosis: The optimal time point for assessment of cardiac necrosis is 24 h reperfusion after an ischaemic insult. Plasma levels of cTnI were determined using a commercially available, high-sensitivity rat cTnI ELISA kit (Life Diagnostic Inc., Pennsylvania, USA) as per the manufacturer's instructions. To evaluate the size of the infarction in relation to the area-at-risk (AAR), infarct size (IS) and LV size, 2,3,5-triphenyltetrazolium chloride (TTC) staining was performed. The LAD was tightly re-occluded in anaesthetised mice after 24 h of reperfusion and Evans blue dye (0.1 mL, 5%) was injected as a bolus into the LV. The heart was then excised and rinsed in cold saline to remove excess dye. The LV was isolated, frozen at −20° C. and then cut transversely into six to seven slices at 1.0 mm thickness. LV slices were incubated for 45 min with 1.5% TTC solution at 37° C. The presence of Evans blue indicated perfusion, whereas its absence indicated lack of perfusion to that region, whereas the brick red areas indicate viable myocardium, white or yellowish regions demarcate necrotic tissue. The slices were mounted between glass slides, and images were acquired digitally using […] microscope (Leica Wild M3B, Heerbrugg, Switzerland) coupled with digital camera (Nikon Cool-PIX4500, Tokyo, Japan). The images were analyzed using Image J analysis program (Version 1.45S, National Institute of Health, USA). The non-ischaemic zone (blue area), area-at-risk zone (AAR, red and white or yellow areas), infarct zone (white or yellow areas) and total LV were outlined and quantified blindly. Infarct size was calculated as percentage of infarct zone/risk zone.
Animal Surgery: Adult C57BL/6 mice were randomly assigned to myocardial ischemia-reperfusion (I-R) injury or sham in vivo. […]

[2] = test system: myocardial I-R injury in C57BL/6 mice; assay: Myocardial I-R in mice: cardiac fibrosis, apoptosis and remodelling after 7 days reperfusion; format: in vivo, mouse; conditions: for Effect on cardiac remodeling 7 days post I-R: 50 mg/kg i.p.
Description: as §1, §2, §3
Assessment of cardiac histology and fibrosis: LV hearts fixed in NBF after 40 min ischaema and 7 d reperfusion were embedded in paraffin by the Alfred Pathology Service (Melbourne, Australia) and sectioned at 4 μm with a Leica 2135 microtome (Leica Microsystems, Wetzlar, Germany). Sections were stained with haematoxylin and eosin (H&E) for assessment of myocardial morphology, or picrosirius red (0.1%, Fluka, Bucks, Switzerland; pH2) for cardiac collagen deposition. Images were taken at 1.25× to capture the whole LV. To examine the local infarct area, images were collected at 20× using the microscope (Olympus BX61, Olympus Inc., Ontario, Canada) and QCapture Pro software (version 5.1 for Windows, Media Cybernetic Inc., Maryland, USA). H&E images were scored blindly in random order on a scale of 1 to 5, based on intensity of blue staining of nuclei (1=least, 5=most, classified by independent observer). The area of picrosirius red staining (% LV area) was quantitatively measured using Image-Pro Plus software (Media Cybernetic Inc., Maryland, USA) for sets of LV slides from 48 h reperfusion and 7 d reperfusion study.
Animal Surgery: Adult C57BL/6 mice were randomly assigned to myocardial ischemia-reperfusion (I-R) injury or sham in vivo. Anesthetized mice (ketamine 80 mg/kg, xylazine 20 mg/kg and atropine 1.2 mg/kg, KXA, i.p.) underwent reversible left arterial descending (LAD) ligation as described (Gao et al. 2000 & Gao et al. 2011). Following sedation, mice were intubated and ventilated (Harvard apparatus, MA, USA) with room air mixed with oxygen (tidal volume 0.25 mL, 150 breaths/min), and placed on a heating pad. A left thoractomy was be made around the third intercostal space, where the beating heart was located. The LAD was reversibly ligated using 7-0 silk suture with a slipknot enclosing two releasing rings. Regional ischemia was confirmed by pale color of the ligated area. […]

[3] = mice, 40 min ischaemia, 24 h reperfusion

Molecule | Cardioprotection: Infarct size ([1]; mice) | Cardioprotection [1] | Effect on cardiac necrosis (cardioprotective action) 24 h post I-R ([1]; mice, 50 mg/kg i.p.) | Reduction of infarct size [1, 3] [%] | Reduction of infarct size ([1]; mice, 40 min ischaemia, 24 h reperfusion, listed as Cmpd17b) [%] | Effect on plasma cTnI levels ([1]; mice, 24 h reperfusion) | Effect on cardiac remodeling 7 days post I-R [2] | Effect on I-R-induced cardiac fibrosis (picrosirius red) ([2]; 7 days reperfusion) | Effect on LV apoptosis in the infarct area ([2]; 7 days reperfusion) | Cardioprotection: Adverse remodelling ([2]; Table 9) | Effect on infarct size (in words) ([1]; mice, 40 min ischaemia, 24 h reperfusion, 50 mg/kg i.p.)
COc1cccc(Cc2cc(C)nn(C(C)C(=O)Nc3ccc(Br)cc3)c2=O)c1 (centres unmarked) [BIDI-001, N-(4-bromophenyl)-2-[5-(3-methoxybenzyl)-3-methyl-6-oxo-6H-pyridazin-1-yl]-propionamide] | ↓↓ | conferred cardioprotection | reduces cardiac necrosis | ~34 | ~35 | significantly reduced | reduces cardiac remodeling | absent | significantly attenuated | ↓↓ | 
CC(C)C1C(NC(=O)Nc2ccc(Cl)cc2)C(=O)N(c2ccccc2)N1C (centres unmarked) [BIDI-002] |  |  | lacked cardioprotective actions |  |  | not seen | lacked these cardioprotective actions | persist |  |  | not
Cc1cc(Cc2cccnc2)c(=O)n(CC(=O)Nc2ccc(Cl)cc2)n1 [MIPS-0010396] | ↓↓ | confers cardioprotection |  |  |  |  |  |  |  |  | 
Ac2-26: Annexin-A1 N-terminal peptide, peptide ANX-A1 mimetic (Ac-AMVSEFLKQAWFIENEEQEYVQTVK; UniProt P04083 2-26, looked up, fragment) |  |  |  | ~25 |  | non-significant trend |  | tended to be inhibited |  |  | 
